According to patent US6737383B1, “Herbicidal oxadiazolidines” (priority 1999, dated 2004):

Experiments:
[1] = system: winter wheat; assay: Test E winter wheat; assay type: in vivo, Triticum aestivum; settings: Postemergence; for Wheat (winter) plant response rating: Rate 250 g/ha
In short: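 Greenhouse-grown plants are treated (postemergence: 1- to 4-leaf stage, sandy loam/potting mix 60:40), then evaluated visually versus untreated controls some 21 to 28 days later.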

[2] = system: winter wheat; assay: Test E winter wheat; assay type: in vivo, Triticum aestivum; settings: Preemergence; for Wheat (winter) plant response rating (0 to 100 scale): Rate 250 g/ha
[3] = system: green foxtail; assay: Test E green foxtail; assay type: in vivo, Setaria viridis; settings: Preemergence; for Green foxtail plant response rating (0 to 100 scale): Rate 250 g/ha
[4] = system: sugar beet; assay: Test B pre/postemergence sugar beet; assay type: in vivo, Beta vulgaris
In short: (§1)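 Response is a visual 0-to-10 score relative to untreated plants, where 0 means no effect and 10 means complete control, taken twelve to sixteen days after application. Treatments went onto soil at planting and onto foliage of 1- to 4-leaf plants, using a surfactant-containing non-phytotoxic solvent.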

[5] = system: rape; assay: Test B pre/postemergence rape; assay type: in vivo, Brassica napus
In short: as §1

[6] = system: pigweed; assay: Test B pre/postemergence pigweed; assay type: in vivo, Amaranthus retroflexus
In short: as §1

[7] = system: blackgrass; assay: Test E blackgrass; assay type: in vivo, Alopecurus myosuroides; settings: Preemergence; for Blackgrass plant response rating (0 to 100 scale): Rate 250 g/ha
[8] = system: Italian ryegrass; assay: Test E Italian ryegrass; assay type: in vivo, Lolium multiflorum; settings: Preemergence; for I. Ryegrass plant response rating (0 to 100 scale): Rate 250 g/ha
[9] = system: winter barley; assay: Test E winter barley; assay type: in vivo, Hordeum vulgare; settings: Preemergence; for Barley (winter) plant response rating (0 to 100 scale): Rate 250 g/ha
[10] = system: soybean; assay: Test B pre/postemergence soybean; assay type: in vivo, Glycine max
In short: as §1

[11] = system: wild oat; assay: Test E wild oat; assay type: in vivo, Avena fatua; settings: Preemergence; for Wild oat plant response rating (0 to 100 scale): Rate 250 g/ha
[12] = Rate 1000 g/ha, 0 to 100 scale where 0 is no effect and 100 is complete control
[13] = 0 to 100 scale where 0 is no effect and 100 is complete control
[14] = Rate 500 g/ha, 0 to 100 scale, 0 is no effect, 100 is complete control
[15] = Rate 500 g/ha, 0 to 100 scale where 0 is no effect and 100 is complete control
[16] = Rate 1000 g/ha, 0 to 100 scale, 0 no effect, 100 complete control
[17] = Preemergence, Rate 62 g/ha, scale of 0 to 10 where 0 is no effect and 10 is complete control
[18] = Preemergence, Rate 250 g/ha, scale of 0 to 10 where 0 is no effect and 10 is complete control
[19] = Preemergence, Rate 500 g/ha, scale of 0 to 10 where 0 is no effect and 10 is complete control
[20] = Rate 125 g/ha, Postemergence, scale of 0 to 10 where 0 is no effect and 10 is complete control
[21] = Rate 125 g/ha, Preemergence, scale of 0 to 10 where 0 is no effect and 10 is complete control
[22] = Rate 250 g/ha, Postemergence, scale of 0 to 10 where 0 is no effect and 10 is complete control
[23] = Rate 500 g/ha, Postemergence, scale 0 to 10, 0 no effect, 10 complete control
[24] = Rate 500 g/ha, 0 to 100 scale (0 no effect, 100 complete control)
[25] = Rate 62 g/ha, Postemergence, scale 0 to 10, 0 no effect, 10 complete control

Cc1ccccc1-n1c(=O)on(C(=O)N(c2cccc(F)c2)C(C)C)c1=O [Compound 269]
Plant response rating, Wheat (winter) [1, 12]: 55
Wheat (winter) plant response rating [1, 13]: 50
Plant response rating, Wheat (winter) [1, 14]: 40
Wheat (winter) plant response rating (0 to 100 scale) [2]: 60
Plant response rating, Wheat (winter) [2, 15]: 40
Plant response rating, Wheat (winter) [2, 16]: 50
Green foxtail plant response rating (0 to 100 scale) [3]: 60
Plant response rating, Green foxtail [3, 15]: 70
Plant response rating, Green foxtail [3, 16]: 100
Sugarbeets plant response rating [4, 17]: 0
Sugarbeets plant response rating [4, 18]: 0
Plant response rating, Sugarbeets [4, 19]: 4
Sugarbeets plant response rating [4, 20]: 0
Sugarbeets plant response rating [4, 21]: 0
Plant response rating, Sugarbeets [4, 22]: 0
Sugarbeets plant response rating [4, 23]: 0
Rape plant response rating [5, 17]: 0
Rape plant response rating [5, 18]: 0
Plant response rating, Rape [5, 19]: 0
Rape plant response rating [5, 20]: 0
Rape plant response rating [5, 21]: 0
Plant response rating, Rape [5, 22]: 0
Rape plant response rating [5, 23]: 0
Redroot pigweed plant response rating [6, 17]: 0
Redroot pigweed plant response rating [6, 18]: 4
Plant response rating, Redroot pigweed [6, 19]: 4
Redroot pigweed plant response rating [6, 20]: 4
Redroot pigweed plant response rating [6, 21]: 0
Plant response rating, Redroot pigweed [6, 22]: 5
Redroot pigweed plant response rating [6, 23]: 6
Blackgrass plant response rating (0 to 100 scale) [7]: 40
Plant response rating, Blackgrass [7, 15]: 30
Plant response rating, Blackgrass [7, 16]: 40
I. Ryegrass plant response rating (0 to 100 scale) [8]: 50
Plant response rating, I. Ryegrass [8, 15]: 60
Plant response rating, I. Ryegrass [8, 16]: 70
Barley (winter) plant response rating (0 to 100 scale) [9]: 30
Plant response rating, Barley (winter) [9, 15]: 50
Plant response rating, Barley (winter) [9, 16]: 60
Soybean plant response rating [10, 17]: 0
Soybean plant response rating [10, 18]: 0
Plant response rating, Soybean [10, 19]: 4
Soybean plant response rating [10, 20]: 1
Soybean plant response rating [10, 21]: 0
Plant response rating, Soybean [10, 22]: 3
Soybean plant response rating [10, 23]: 3
Wild oat plant response rating (0 to 100 scale) [11]: 70
Plant response rating, Wild oat [11, 15]: 70
Plant response rating, Wild oat [11, 16]: 70

CC(C)N(C(=O)n1oc(=O)n(C2CCCC2)c1=O)c1ccc(Cl)cc1 [Compound 282]
Plant response rating, Wheat (winter) [1, 12]: 50
Wheat (winter) plant response rating [1, 13]: 20
Plant response rating, Wheat (winter) [1, 14]: 30
Wheat (winter) plant response rating (0 to 100 scale) [2]: 60
Plant response rating, Wheat (winter) [2, 24]: 60
Plant response rating, Wheat (winter) [2, 16]: 70
Green foxtail plant response rating (0 to 100 scale) [3]: 80
Plant response rating, Green foxtail [3, 24]: 100
Plant response rating, Green foxtail [3, 16]: 100
Sugarbeets plant response rating [4, 17]: 0
Sugarbeets plant response rating [4, 18]: 0
Plant response rating, Sugarbeets [4, 19]: 3
Sugarbeets plant response rating [4, 25]: 2
Sugarbeets plant response rating [4, 20]: 6
Sugarbeets plant response rating [4, 21]: 0
Plant response rating, Sugarbeets [4, 22]: 7
Sugarbeets plant response rating [4, 23]: 7
Rape plant response rating [5, 17]: 0
Rape plant response rating [5, 18]: 7
Plant response rating, Rape [5, 19]: 2
Rape plant response rating [5, 25]: 2
Rape plant response rating [5, 20]: 3
Rape plant response rating [5, 21]: 0
Plant response rating, Rape [5, 22]: 6
Rape plant response rating [5, 23]: 8
Redroot pigweed plant response rating [6, 17]: 1
Redroot pigweed plant response rating [6, 18]: 7
Plant response rating, Redroot pigweed [6, 19]: 9
Redroot pigweed plant response rating [6, 25]: 4
Redroot pigweed plant response rating [6, 20]: 6
Redroot pigweed plant response rating [6, 21]: 6
Plant response rating, Redroot pigweed [6, 22]: 7
Redroot pigweed plant response rating [6, 23]: 8
Blackgrass plant response rating (0 to 100 scale) [7]: 60
Plant response rating, Blackgrass [7, 24]: 60
Plant response rating, Blackgrass [7, 16]: 70
I. Ryegrass plant response rating (0 to 100 scale) [8]: 70
Plant response rating, I. Ryegrass [8, 24]: 70
Plant response rating, I. Ryegrass [8, 16]: 70
Barley (winter) plant response rating (0 to 100 scale) [9]: 50
Plant response rating, Barley (winter) [9, 24]: 50
Plant response rating, Barley (winter) [9, 16]: 70
Soybean plant response rating [10, 17]: 0
Soybean plant response rating [10, 18]: 0
Plant response rating, Soybean [10, 19]: 0
Soybean plant response rating [10, 25]: 3
Soybean plant response rating [10, 20]: 3
Soybean plant response rating [10, 21]: 0
Plant response rating, Soybean [10, 22]: 4
Soybean plant response rating [10, 23]: 4
Wild oat plant response rating (0 to 100 scale) [11]: 70
Plant response rating, Wild oat [11, 24]: 70
Plant response rating, Wild oat [11, 16]: 80
